Measured values as given in US20260258036A1, “INHIBITORS OF HUMAN ALDOSTERONE SYNTHASE (CYP11B2)” («TARGET MEDICALS» LIMITED LIABILITY COMPANY, priority 2022, published 2026).

molecular target: T1, recombinant CYP11B2 (Homo sapiens, UniProt P19099); test: Inhibition of CYP11B2 activity in a reconstructed enzyme system (HPLC with UV detector); type: biochemical; details: compounds 2_xx, 3_xx, 4_01; test compound final concentration ≤2 μM; corticosterone substrate; 30 minutes at 37° C.
T1 sequence (P19099 25-503): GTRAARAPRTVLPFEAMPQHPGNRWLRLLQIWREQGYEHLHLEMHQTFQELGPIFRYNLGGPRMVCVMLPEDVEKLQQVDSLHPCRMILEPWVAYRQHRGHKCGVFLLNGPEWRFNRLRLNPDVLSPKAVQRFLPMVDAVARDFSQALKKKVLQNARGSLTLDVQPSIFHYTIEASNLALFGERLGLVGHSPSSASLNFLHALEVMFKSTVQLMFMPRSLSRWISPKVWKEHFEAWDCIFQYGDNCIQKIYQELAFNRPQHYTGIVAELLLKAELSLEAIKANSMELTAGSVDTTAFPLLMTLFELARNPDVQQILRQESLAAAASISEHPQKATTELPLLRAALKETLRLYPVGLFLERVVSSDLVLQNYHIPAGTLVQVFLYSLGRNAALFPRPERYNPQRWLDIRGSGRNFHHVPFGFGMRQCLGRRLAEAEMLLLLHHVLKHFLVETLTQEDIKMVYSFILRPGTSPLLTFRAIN
Protocol: The authors of the present invention investigated the activity of the compounds according to the invention as inhibitors of CYP11 B2 when analyzed in a reconstructed system containing 0.5 μm recombinant CYP1 1B2, 0.3 μm human adrenodoxin reductase, 2 μm human adrenodoxin, 100 μm corticosterone as a control reaction to detect the formation of a product with using an HPLC system with a UV detector. The test compound is added to the reaction mixture to a final concentration of ≤2 μM. The concentrated protein mixture was diluted with buffer to a final volume of 0.5 ml, pre-incubated for 10 min at 37° C., followed by the addition of the substrate. Reactions are initiated by adding NADPH (nicotinamide adenine dinucleotide phosphate) to a final concentration of 0.25 mM with a regenerating system (glucose-6-phosphate and glucose-6-phosphate dehydrogenase) in 25 mM potassium phosphate buffer, pH 7.4, containing 0.1 mM DTT (dithiothreitol), 0.1% Tween-20.4 mM MgCl2 and incubated at 37° C. After 30 minutes of incubation, the reaction is stopped by adding 5 ml of dichloromethane. The organic phase is isolated by centrifugation, evaporation, dissolution in ethanol and transferred to a vial for HPLC studies. A C18 Luna 100 Å 250×4, 6 mm column was used on an Agilent Technologies 1200 series instrument (USA) with ethanol as the mobile phase.
Activity (a) is calculated as the amount of product in nmol per minute per 1 nmol of CYP.
where k is the correction factor (k=1 is used as the molar extinction coefficients of steroid substrates and products similar at a detection wavelength of 254 nm), As is the peak area of the substrate, cs is the concentration of the substrate, Ap is the peak area of the product, ce is the concentration of CYP (cytochrome P450), t is the reaction time.
The level of inhibition of CYP11 B2 activity is expressed as a percentage, where 0% is defined as no inhibition in reactions without test compound and 100% is absolute inhibition by test compound.

| SMILES | Level of CYP11B2 activity inhibition |
| --- | --- |
| Cl.O=S(=O)(c1cc(F)c(N2CCNCC2)c(F)c1)n1ccc2c(-c3ccccn3)cncc21 [Compound 3_27, 1-((3,5-difluoro-4-(piperazin-1-yl)phenyl)sulfonyl)-4-(pyridin-2-yl)-1H-pyrrolo[2,3-c]pyridine] | ++ (inhibition of CYP11B2 activity in the range of 20-100% (++)) |

same assay, conditions: compounds 2_xx, 3_xx, 4_01; test compound final concentration ≤2 μM; corticosterone substrate; 30 minutes at 37° C.; read-out: Level of CYP11B2 activity inhibition

| SMILES | inhibition at 2 µM [%] |
| --- | --- |
| CN1CC2CC(C1)N2c1c(F)cc(S(=O)(=O)n2ccc3c(-c4ccccn4)cncc32)cc1F [Compound 3_18, 6-(2,6-difluoro-4-((4-(pyridin-2-yl)-1H-pyrrolo[2,3-c]pyridin-1-yl)sulfonyl)phenyl)-3-methyl-3,6-diazabicyclo[3.1.1]heptane] | 35 to 100 |
| CN1CC2CCC(C1)N2c1c(F)cc(S(=O)(=O)n2ccc3c(-c4ccccn4)cncc32)cc1F [Compound 3_19, 1-((3,5-difluoro-4-(3-methyl-3,8-diazabicyclo[3.2.1]octan-8-yl)phenyl)sulfonyl)-4-(pyridin-2-yl)-1H-pyrrolo[2,3-c]pyridine] | 35 to 100 |
| O=S(=O)(c1cc(F)c(N2CCN3CCC2C3)c(F)c1)n1ccc2c(-c3ccccn3)cncc21 (stereo not drawn) [Compound 3_20, 1-((4-(1,4-diazabicyclo[3.2.1]octan-4-yl)-3,5-difluorophenyl)sulfonyl)-4-(pyridin-2-yl)-1H-pyrrolo[2,3-c]pyridine] | 35 to 100 |
| O=S(=O)(c1cc(F)c(N2CC3(CNC3)C2)c(F)c1)n1ccc2c(-c3ccccn3)cncc21 [Compound 3_21, 1-((3,5-difluoro-4-(2,6-diazaspiro[3.3]heptan-2-yl)phenyl)sulfonyl)-4-(pyridin-2-yl)-1H-pyrrolo[2,3-c]pyridine] | 20 to 100 |
| CNc1cnc(-c2cncc3c2ccn3S(=O)(=O)c2cc(F)c(N3CC4CN(C)CC4C3)c(F)c2)cn1 (stereo not drawn) [Compound 3_22, 5-(1-((3,5-difluoro-4-(5-methylhexahydropyrrolo[3,4-c]pyrrol-2(1H)-yl)phenyl)sulfonyl)-1H-pyrrolo[2,3-c]pyridin-4-yl)-N-methylpyrazin-2-amine] | 35 to 100 |
| CN1CC2CN(c3c(F)cc(S(=O)(=O)n4ccc5c(-c6cnc(C#N)cn6)cncc54)cc3F)CC2C1 (stereo not drawn) [Compound 3_23, 5-(1-((3,5-difluoro-4-(5-methylhexahydropyrrolo[3,4-c]pyrrol-2(1H)-yl)phenyl)sulfonyl)-1H-pyrrolo[2,3-c]pyridin-4-yl)pyrazine-2-carbonitrile] | 35 to 100 |
| CN1CC2CN(c3c(F)cc(S(=O)(=O)n4ccc5c(-c6ccc(C#N)nc6)cncc54)cc3F)CC2C1 (stereo not drawn) [Compound 3_24, 5-(1-((3,5-difluoro-4-(5-methylhexahydropyrrolo[3,4-c]pyrrol-2(1H)-yl)phenyl)sulfonyl)-1H-pyrrolo[2,3-c]pyridin-4-yl)picolinonitrile] | 35 to 100 |
| O=S(=O)(c1cc(F)c(N2CC3CC2CN3)c(F)c1)n1ccc2c(-c3ccccn3)cncc21 (stereo not drawn) [Compound 3_25, 1-((4-(2,5-diazabicyclo[2.2.1]heptan-2-yl)-3,5-difluorophenyl)sulfonyl)-4-(pyridin-2-yl)-1H-pyrrolo[2,3-c]pyridine] | 35 to 100 |
| O=S(=O)(c1cc(F)c(N2C3CCC2CNC3)c(F)c1)n1ccc2c(-c3ccccn3)cncc21 [Compound 3_26, 1-((4-(3,8-diazabicyclo[3.2.1]octan-8-yl)-3,5-difluorophenyl)sulfonyl)-4-(pyridin-2-yl)-1H-pyrrolo[2,3-c]pyridine] | 35 to 100 |
| N#Cc1ccc(-c2cncc3c2ccn3S(=O)(=O)c2cc(F)c(N3CC4CNCC4C3)c(F)c2)cn1 (stereo not drawn) [Compound 3_28, 5-(1-((3,5-difluoro-4-(hexahydropyrrolo[3,4-c]pyrrol-2(1H)-yl)phenyl)sulfonyl)-1H-pyrrolo[2,3-c]pyridin-4-yl)picolinonitrile] | 35 to 100 |
| CN1CCN(c2c(F)cc(S(=O)(=O)n3ccc4c(-c5ccccn5)cncc43)cc2F)CC1 [Compound 4_01, 1-((3,5-difluoro-4-(4-methylpiperazin-1-yl)phenyl)sulfonyl)-4-(pyridin-2-yl)-1H-pyrrolo[2,3-c]pyridine] | 35 to 100 |
